These results are taken from patent US9187497B2, “Substituted pyrido[3,2-e]pyrrolo[1,2-a]pyrazines as inhibitors of poly(ADP-ribose)polymerase (PARP)” (Takeda Phamaceutical Company Limited, priority 2009, dated 2015).

The test system of one data set is Jurkat cell line. The experiment in a line: PARP cellular chemopotentiation assay (MTS cell viability with and without TMZ). The format is cell-based. Conditions: ratio of EC50 for inhibition of cell viability without and with 100 μM TMZ; Jurkat cells, 96 hours of treatment. Put shortly:
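Jurkat cells, 10,000/well, pre-cultured 24 h, then treated 96 h with serial compound dilutions (0.5% DMSO) with or without 100 μM TMZ. Viability by MTS conversion (OD490), normalized to DMSO controls; EC50 from curve fits, PF50 = EC50 without TMZ / EC50 with TMZ.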

In data set [1] the target is T1, catalytic domain of Human PARP (Homo sapiens, UniProt P09874).
T1 construct: The catalytic domain of Human PARP was cloned and prepared; made in house
T1 sequence (P09874 788-1014 limits assumed): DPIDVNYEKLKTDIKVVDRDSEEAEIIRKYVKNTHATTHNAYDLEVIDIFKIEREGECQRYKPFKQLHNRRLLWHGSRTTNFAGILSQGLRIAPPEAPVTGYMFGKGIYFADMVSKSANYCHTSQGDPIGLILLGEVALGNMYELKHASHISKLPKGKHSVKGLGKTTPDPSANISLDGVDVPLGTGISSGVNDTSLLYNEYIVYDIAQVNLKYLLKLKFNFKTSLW
The experiment in a line: Biacore surface plasmon resonance affinity assay (dissociation constant KD). It counts as binding. Conditions: pKD=-log(KD), KD in molar concentration; Biacore T100, 25° C. Here is the method: Dissociation Constant (KD) from Surface Plasmon Resonance
The catalytic domain of Human PARP was cloned and prepared as described in Kinoshita, T.; Nakanishi, I.; Warizaya, M.; Iwashita, A.; Kido, Y.; Hattori, K. and Fujii, T. 2006 FEBS Letters 556, 43-46. Purified enzyme was stored at −80° C. in 25 mM Tris(hydroxymethyl)aminomethane (Tris) pH 7.4, 150 mM NaCl, 2 mM dithiothreitol (DTT) at a concentration of 6 mg/ml.
Biacore affinity assays for test compounds were conducted on a Biacore T100 (GE Healthcare) as follows. A Series S Sensor Chip CM5 (part number BR-1006-68, GE Healthcare) was activated for amide coupling with an Amine Coupling Kit (part number BR-1000-50, GE Healthcare) as described by the manufacturer. The mobile phase buffer consisted of Biacore buffer HBS-P (part number BR-1003-68, GE Healthcare) supplemented with 1% v/v dimethylsulfoxide (DMSO), 0.5 mM Tris(2-carboxyethyl)phosphine hydrochloride (TCEP), and 5 mM MgCl2. Enzyme samples (2 μl/6 mg/ml) stored at −80° C. were diluted to 0.080 mg/ml with 10 mM 4-morpholineethanesulfonic acid (MES) pH 6.5 and then mounted on the activated Biacore CM5 chip at a flow rate of 10 μl/min for 240 seconds. When successfully mounted, a signal of approximately 8,000 reflective units was observed. Test compounds were diluted 9 times 2-fold serially in mobile phase buffer (listed above) at 1% v/v DMSO final to generate a concentration gradient bracketing their anticipated KDs. Biacore mounted PARP was given a 1 minute exposure (association phase) to various concentrations of test compounds to observe a steady state equilibrium or an on rate. The exposure was followed with a dissociation phase of 5 minutes. The association and dissociation phases were at a flow rate of 50 μl/min and a temperature of 25° C.
Parameters Rmax (response at saturation) and KD (binding constant) were calculated through a nonlinear least squares fitting of the equation to the data by use of the Biacore T100 analysis software.
Parameter optimization was through a nonlinear least squares analysis of the association phase Response=Rmax*(1−exp(−(kon[cmpd]+koff)*t)) and dissociation phase Response=[…] by use of the Biacore T100 analysis software. The binding constant KD was calculated from the definition KD=koff/kon
(In general: Surface plasmon resonance follows binding to a sensor surface in real time, without labels.)

The target in the next data set is T2, PARP (Homo sapiens, UniProt P09874).
T2 construct: purchased Trevigen 4684-096-01 (enzyme); kit 4684-096-K HT
T2 sequence (P09874 whole entry): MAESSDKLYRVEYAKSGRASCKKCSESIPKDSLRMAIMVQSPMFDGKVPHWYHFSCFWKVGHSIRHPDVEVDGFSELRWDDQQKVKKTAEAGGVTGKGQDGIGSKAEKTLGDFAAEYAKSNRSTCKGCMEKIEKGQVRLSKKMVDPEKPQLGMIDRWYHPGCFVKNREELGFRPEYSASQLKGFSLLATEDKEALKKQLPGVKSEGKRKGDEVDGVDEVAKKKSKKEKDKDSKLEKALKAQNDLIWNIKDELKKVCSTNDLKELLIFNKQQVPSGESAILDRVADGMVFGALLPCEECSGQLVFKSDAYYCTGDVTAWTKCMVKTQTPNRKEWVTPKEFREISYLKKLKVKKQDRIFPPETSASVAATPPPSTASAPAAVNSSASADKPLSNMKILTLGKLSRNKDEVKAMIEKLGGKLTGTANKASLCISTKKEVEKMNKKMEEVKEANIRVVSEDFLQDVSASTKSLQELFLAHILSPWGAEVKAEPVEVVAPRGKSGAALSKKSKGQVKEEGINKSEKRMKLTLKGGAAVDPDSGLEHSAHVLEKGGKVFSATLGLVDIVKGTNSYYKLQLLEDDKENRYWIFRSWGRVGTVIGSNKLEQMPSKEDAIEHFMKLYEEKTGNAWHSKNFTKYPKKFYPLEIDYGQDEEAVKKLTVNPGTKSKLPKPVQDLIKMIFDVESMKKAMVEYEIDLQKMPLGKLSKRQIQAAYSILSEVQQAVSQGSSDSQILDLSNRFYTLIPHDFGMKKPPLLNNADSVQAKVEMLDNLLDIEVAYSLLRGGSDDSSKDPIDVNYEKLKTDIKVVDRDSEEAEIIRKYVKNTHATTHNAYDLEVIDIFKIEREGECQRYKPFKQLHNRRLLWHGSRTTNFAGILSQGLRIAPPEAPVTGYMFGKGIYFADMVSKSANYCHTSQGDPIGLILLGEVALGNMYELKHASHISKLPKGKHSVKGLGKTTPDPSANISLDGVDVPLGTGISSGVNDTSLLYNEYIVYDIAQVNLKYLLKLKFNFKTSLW
As to the kind of experiment: PARP ELISA colorimetric assay of inhibition of PARP catalytic activity (IC50). Conditions: pIC50=-log(IC50), IC50 in molar concentration; ELISA-based PARP kit, 10 minutes of catalysis. The format is biochemical. Put shortly:
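Human PARP was added as a 0.1 nM solution to histone-coated wells with compound for a 10-min ambient preincubation. The reaction was started with 100 μM NAD+ solution plus activated DNA and run 10 min. PAR formation was detected by anti-PAR ELISA, colorimetric. IC50 came from a 12-point, 3-fold gradient fitted by nonlinear least squares to a Hill equation.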
For orientation: ELISA stands for enzyme-linked immunosorbent assay.

Some results are limits rather than exact numbers.

`O=C1Nc2cc(CN3CC=C(c4ccc(Cl)cc4)CC3)cnc2N2CCC[C@@H]12` [Compound 2, (S)-3-((4-(4-chlorophenyl)-5,6-dihydropyridin-1(2H)-yl)methyl)-6a,7,8,9-tetrahydropyrido[3,2-e]pyrrolo[1,2-a]pyrazin-6(5H)-one]: the melting point (in general, the temperature of the solid-liquid transition) was 234 to 235 °C. Further, the PF50 with Jurkat cell line is recorded as >2000. The dissociation constant (Kd) (usually the concentration at which binding is half-saturated) in data set [1] was < 0.0316 µM.
In the case of `N#Cc1ccc(N2CCN(Cc3cnc4c(c3)NC(=O)[C@@H]3CCCN43)CC2)nc1` [Compound 5, (S)-6-(4-((6-oxo-5,6,6a,7,8,9-hexahydropyrido[3,2-e]pyrrolo[1,2-a]pyrazin-3-yl)methyl)piperazin-1-yl)nicotinonitrile], the melting point lay in the range of 252 to 256 °C. Also, the PF50 in the data set on Jurkat cell line is >5000. In addition, the half-inhibitory concentration (IC50) (usually the midpoint of a concentration-inhibition curve) at PARP is 0.0158 to 0.0398 µM. Also, the equilibrium dissociation constant (Kd) in data set [1] is < 0.0316 µM.
